Ends that are not written are not given here.
What was measured:
[1] = tested on: S. aureus AB94004; assay type: cell-based; conditions: for MIC S.aureus, substance alone: controls of the competition assay (Figure 7C): untreated peptide, or LTA / LPS alone
Experimental: To confirm the results of the BLI titrations, 250 µg/mL of Kn2-7 or BmKn2 was mixed with an equal volume of 1 mg/mL LTA or LPS. Then, the MICs of Kn2-7 or BmKn2 mixed with LTA against S. aureus and E. coli were measured. […] The MICs of Kn2-7 and BmKn2 treated with LTA against S. aureus were 25 and 12.5 µg/mL, respectively.
A total of 250 µg/mL of each peptide solution was mixed with an equal volume of 1 mg/mL of the LTA or LPS solution. Then, the MICs of BmKn2 and Kn2-7 treated with LTA or LPS against S. aureus AB94004 and E. coli AB94012 were measured.

[2] = tested on: E. coli AB94012; test: Growth inhibitory assay (growth curves); assay type: cell-based; conditions: at a concentration of 6.25 µg/mL; Figure 2C
Experimental: (§1) Figure 2 Gowth inhibitory activities of Kn2-7. (A) Growth curves of S. aureus AB94004 treated with Kn2-7, BmKn2 or antibiotics. (B) Growth curves of MRSA P1386 treated with Kn2-7, BmKn2 or antibiotics. (C) Growth curves of E. coli AB94012 treated with Kn2-7, BmKn2 or antibiotics.
(§2) The time growth curves of S. aureus and MRSA treated with BmKn2 or its derivatives were determined based on measurements taken at 630 nm at each time point. Different concentrations of peptide were added to the tested strains, which were cultured in 96-well plates using the same method as was used for determining the MIC.

[3] = tested on: S. aureus AB94004; test: Growth inhibitory assay (growth curves); assay type: cell-based; conditions: at a concentration of MICs; measurements at 630 nm, 96-well plates; Figure 2A
Experimental: as §1, §2

[4] = tested on: MRSA P1386; test: Growth inhibitory assay (growth curves); assay type: cell-based, S. aureus; conditions: measurements at 630 nm, 96-well plates; Figure 2B
Experimental: as §1, §2

[5] = Biolayer interferometry; assay type: binding, S. aureus; conditions: 10 µg/mL biotinylated peptide on biosensor tips, 500 µg/mL LTA, 10 mM HEPES pH 7.4, 0.14 M NaCl, 30°C
Experimental: Figure 7 Binding assay of Kn2-7 and LTA or LPS. (A) Interaction of 10 µg/ml of Kn2-7 with 500 µg/ml of LPS or 500 µg/mL of LTA. Curve A3 is LPS, curve B3 is LTA and curve C3 is buffer. (B) Interaction of 10 µg/mL of BmKn2 with 500 µg/mL of LPS or 500 µg/mL of LTA. Curve D3 is LPS, curve E3 is LTA and curve F3 is the buffer. (C) MICs of Kn2-7 and BmKn2 treated with LTA or LPS against S. aureus and E. coli.
Biolayer Interferometry (BLI) experiments were performed on OCT RED (FortéBio, Inc.). A total of 500 µg/mL of lipoteichoic acid from S. aureus (LTA, Sigma, L2515), lipopolysaccharides from E. coli (LPS, Sigma, L2880) or buffer (10 mM HEPES, pH 7.4 and 0.14 M NaCl) was dispensed into 96-well microtiter plates at a volume of 200 µl per well. The operating temperature was 30°C. Biosensor tips (FortéBio, Inc., Menlo Park, CA) were pre-wetted with the buffer for 60 seconds at baseline. Then, 10 µg/mL Biotin-Kn2-7 or Biotin-BmKn2 was loaded onto the biosensor tips for 900 seconds. Baseline 2 was subsequently established for 300 seconds. Dissociation of Kn2-7 or BmKn2 occurred for 900 seconds in the buffer. Data were generated automatically by the Octet® User Software (version 3.1) and were subsequently analyzed from the resultant text files using Excel 2000.

[6] = tested on: E. coli AB94012; test: Enzyme release assay (catalase); assay type: cell-based; conditions: E. coli AB94012, 37°C; 0.9% saline negative control; Figure 4D
Experimental: (§3) Figure 4 Secondary structure and enzyme release assay of Kn2-7. (A) and (B) Secondary structure analysis of the Kn2-7 and BmKn2 peptides. (A) Circular dichroism spectra of 0.1 mg/mL of Kn2-7 in water, 30% TFE/H2O or 70% TFE/H2O. (B) Circular dichroism spectra of 0.1 mg/mL of BmKn2 in water, 30% TFE/H2O or 70% TFE/H2O. (C) and (D) Enzyme release assay. (C) S. aureus AB94004 treated with Kn2-7 or BmKn2 was harvested, and the catalase activities of the supernatants were measured; 0.9% saline was used as the negative control, and ampicillin sodium was used as the antibiotic control. (D) E. coli AB94012 treated with Kn2-7 or BmKn2 was harvested, and the catalase activities in the supernatants were measured; 0.9% saline was used as the negative control, and kanamycin was used as the antibiotic control.
(§4) Bacterial suspensions and serial-diluted peptides were mixed at a ratio of 4∶1 in different tubes with a final volume of 2 ml. The mixtures were then incubated at 37°C with continuous shaking. At each time point, 200 µl of the treated bacterial suspension was transferred to sterilized tubes. After centrifugation, the supernatants were transferred to a sterilized 1.5-ml tube, and catalase activity was measured with a Catalase Assay Kit (Beyotime, Jiangsu, China) using the method for measuring peroxidase activity.

[7] = tested on: S. aureus AB94004; test: Enzyme release assay (catalase); assay type: cell-based; conditions: S. aureus AB94004, 37°C; 0.9% saline negative control; Figure 4C
Experimental: as §3, §4

[8] = tested on: E. coli AB94012; test: Bactericidal assay (time-killing); assay type: cell-based; conditions: samples at 0, 5, 15, 30, 60 min, colony counts, average of three dishes
Experimental: Figure 5 Bactericidal assays of the Kn2-7 and BmKn2 peptides against S. aureus and E. coli AB94012. Set point indicates untreated bacteria, and 0 minutes was defined as the time of the first sample collection, which was immediately after mixing bacteria and Kn2-7 or BmKn2. The other samples were collected at 5 min, 15 min, 30 min or 60 min. All of the counts were the average of three dishes, and the experiment was repeated at least three times. (A) Time-killing curve of Kn2-7 against S. aureus AB94004. (B) Time-killing curve of BmKn2 against S. aureus AB94004. (C) Time-killing curve of Kn2-7 against E. coli AB94012.
Bactericidal curves for Kn2-7 and BmKn2 were determined against S. aureus AB94004 and E. coli AB94012. A 400 µl aliquot of the peptide solution was added to 1,600 µl of a bacterial suspension. At each time point, 200 µl of the treated bacterial suspension was transferred to a sterilized 1.5-ml tube. After centrifugation at 1,000×g for 5 min, the supernatant was removed, and the pellet was resuspended in 200 µl of LB medium. The bacterial suspensions were placed on agar plates and incubated at 37°C until viable colonies could be counted.

Row | Substance | MIC S.aureus, peptide treated with LPS ([1]; 250 µg/mL peptide mixed with equal volume of 1 mg/mL LPS) [µg/mL] | MIC S.aureus, peptide treated with LTA ([1]; 250 µg/mL peptide mixed with equal volume of 1 mg/mL LTA) [µg/mL] | MIC S.aureus, substance alone [1] [µg/mL] | Growth inhibition of E. coli AB94012 (growth curve) [2] | Growth inhibition of S. aureus (growth curve) [3] | Growth inhibition of MRSA P1386 (growth curve) [4] | Binding to LTA (BLI) [5] | Catalase activity of the supernatant over time [6] | Catalase activity of the supernatant over time [7] | Bactericidal effect (time-killing curve) [8]
1 | FIGAIARLLSKIF-NH2 [BmKn2] | 6.25 | 12.5 | 6.25 | had no effect against E. coli AB94012 | inhibited the growth of S. aureus completely | inhibited the growth of MRSA P1386 completely | bound strongly | low catalase activity at each time point | almost the same catalase activity at each time point | not able to kill E. coli AB94012
2 | FIKRIARLLRKIF [Kn2-7] | – | – | 3.13 | inhibited the growth of E. coli AB94012 | inhibited the growth of S. aureus completely | inhibited the growth of MRSA P1386 completely | bound strongly | nearly the same high enzymatic activity at each time point | almost the same catalase activity at each time point | able to kill E. coli AB94012 rapidly

Source: PMC3390344, “Antibacterial Activity and Mechanism of a Scorpion Venom Peptide Derivative In Vitro and In Vivo” (PLoS ONE, 2012)
